Data on five compounds can be found in patent US20250034186A1, “ANTIVIRAL COMPOUNDS” (priority 2020, published 2025).

One test concerns RSV A2. The test is described as follows: RSV NHBE EC50, RSV A2 antiviral assay. Type of test: cell-based. Particulars: human respiratory syncytial virus, 96 h; RSV A2 in NHBE cells, 4 days. As for the experimental part: Normal human bronchial epithelial (NHBE) cells were purchased from Lonza (Walkersville, MD, Cat #CC-2540) and cultured in Bronchial Epithelial Growth Media (BEGM) (Lonza, Walkersville, MD, Cat #CC-3170). The cells were passaged 1-2 times per week to maintain <80% confluency. The NHBE cells were discarded after 6 passages in culture.
To conduct the RSV A2 antiviral assay, NHBE cells were plated in 96-well plates at a density of 7,500 cells per well in BEGM and allowed to attach overnight at 37° C. Following attachment, 100 μL of cell culture media was removed and 3-fold serially diluted compound was added using a Hewlett-Packard D300 Digital Dispenser. The final concentration of DMSO was normalized to 0.05%. Following compound addition, the NHBE cells were infected by the addition of 100 μL of RSV A2 at a titer of 1×10^4.5 tissue culture infectious doses/mL in BEGM and then incubated at 37° C. for 4 days. The NHBE cells were then allowed to equilibrate to 25° C. and cell viability was determined by removing 100 μL of culture medium and adding 100 μL of Cell-Titer Glo viability reagent. The mixtures were incubated for 10 minutes at 25° C., and the luminescence signal was quantified on an Envision luminescence plate reader.

The next test concerns HRV16. The test can be described thus: HRV16 HeLa EC50. Particulars: Human rhinovirus sp., HRV16; H1-HeLa cells, 96 h, 33° C. It counts as cell-based, human rhinovirus. How it is done:
H1-HeLa cells, cultured in complete DMEM medium containing 10% heat-inactivated FBS and 1% Penicillin/Streptomycin, were seeded in 96 well plates at 3000 cells/well one day prior to compound dosing and infection. The antiviral activity of each compound was measured in triplicate. Compounds were added directly to the cell cultures in serial 3-fold dilutions using the HP300 digital dispenser (Hewlett Packard, Palo Alto, CA) immediately prior to infection. The plates were transferred to BSL-2 containment and the appropriate dilution of virus stock, previously determined by titration and prepared in cell culture media, was added to test plates containing cells and serially diluted compounds. Each plate included 6 wells of infected untreated cells and 6 wells of uninfected cells that served as 0% and 100% virus inhibition control, respectively. Following the infection, test plates were incubated for 96 h in a tissue culture incubator set to 33° C./5% CO2. Following incubation, the H1-HeLa cells were removed from incubation and allowed to equilibrate to 25° C. Cell viability was determined by removing 100 μL of culture medium and adding 100 μL of Cell-Titer Glo viability reagent. The mixtures were incubated on a shaker for 10 minutes at 25° C., and the luminescence signal was quantified on an Envision luminescence plate reader.

In a further test the test system is RSV strain A2. The test can be described thus: RSV HEp-2 EC50, infectious cytopathic cell protection assay. It counts as cell-based. The conditions noted are these: human respiratory syncytial virus, 96 h; RSV A2 in HEp-2 cells, 4 days, Cell TiterGlo. How it is done: Antiviral activity against RSV is determined using an infectious cytopathic cell protection assay in HEp-2 cells. In this assay, compounds inhibiting viral infection and/or replication produce a cytoprotective effect against the virus-induced cell killing that can be quantified using a cell viability reagent. The techniques used here are novel adaptations of methods described in published literature (Chapman et al., Antimicrob Agents Chemother. 2007, 51(9):3346-53.).
HEp-2 cells are obtained from ATCC (Manassas, VI) and maintained in MEM media supplemented with 10% fetal bovine serum and penicillin/streptomycin. Cells are passaged twice a week and kept at subconfluent stage. Commercial stock of RSV strain A2 (Advanced Biotechnologies, Columbia, MD) is titered before compound testing to determine the appropriate dilution of the virus stock that generates desirable cytopathic effect in HEp-2 cells.
For antiviral tests, HEp-2 cells are grown in large cell culture flasks to near confluency but not fully so. The compounds to be tested are prediluted in DMSO in 384-well compound dilution plates, either in an 8 or 40 sample per plate standardized dose response format. 3-fold serial dilution increments of each test compound are prepared in the plates and test samples are transferred via acoustic transfer apparatus (Echo, Labcyte) at 100 nL per well into cell culture assay 384-well plates. Each compound dilution is transferred in single or quadruplicate samples into dry assay plates, which are stored until assay is ready to go. The positive and negative controls are laid out in opposite on ends of the plate in vertical blocks (1 column).
Subsequently, an infectious mixture is prepared using an appropriate dilution of virus stock previously determined by titration with cells at a density of 50,000/mL and 20 μL/well is added to test plates w/compounds via automation (uFlow, Biotek). Each plate includes negative and positive controls (16 replicates each) to create 0% and 100% virus inhibition standards, respectively. Following the infection with RSV, testing plates are incubated for 4 days in a 37° C. cell culture incubator. After the incubation, a cell viability reagent, Cell TiterGlo (Promega, Madison, WI) is added to the assay plates, which are incubated briefly, and a luminescent readout is measured (Envision, Perkin Elmer) in all the assay plates. The RSV-induced cytopathic effect, percentage inhibition, is determined from the levels of remaining cell viability. […] Various potent anti-RSV tool compounds are used as positive controls for antiviral activity.
Background: Protection from cytopathic effect is a common read-out in antiviral testing.

A further test concerns HRV14. The test can be described thus: HRV14 HeLa EC50. Type of test: cell-based, human rhinovirus. The conditions noted are these: Human rhinovirus sp., HRV14; H1-HeLa cells, 96 h, 37° C. How it is done:
(§1) H1-HeLa cells, cultured in complete RPMI 1640 medium containing 10% heat-inactivated FBS and 1% Penicillin/Streptomycin, were seeded in 96 well plates at 5000 cells/well one day prior to compound dosing and infection. The antiviral activity of each compound was measured in triplicate. Compounds were added directly to the cell cultures in serial 3-fold dilutions using the HP300 digital dispenser (Hewlett Packard, Palo Alto, CA) immediately prior to infection. The plates were transferred to BSL-2 containment and 100 μL of 1/4000 dilution of HRV14 virus stock was added to each well containing cells and serially diluted compounds. Each plate included 6 wells of infected untreated cells and 6 wells of cells containing 5 μM Rupintrivir that served as 0% and 100% virus inhibition control, respectively. Following the infection, test plates were incubated for 96 h in a tissue culture incubator set to 37° C./5% CO2. Following incubation, the H1-HeLa cells were removed from incubation and allowed to equilibrate to 25° C. Cell viability was determined by removing 100 μL of culture medium and adding 100 μL of Cell-Titer Glo viability reagent. The mixtures were incubated on a shaker for 10 minutes at 25° C., and the luminescence signal was quantified on an Envision luminescence plate reader.

In another test the test system is HRV1a. The test can be described thus: HRV1A HeLa EC50. Particulars: Human rhinovirus sp., HRV1A, HeLa, 96 h, read-out: HRV1A HeLa EC50. Type of test: cell-based, human rhinovirus. As for the experimental part: as §1, with “HRV1a” for “HRV14”

Structures are written as SMILES.

`C[C@H](N[P@@](=O)(OC[C@@]1(C#N)O[C@@H](c2ccc3c(N)ncnn23)[C@H](O)[C@@H]1O)Oc1ccccc1)C(=O)OC1CCCCC1` (single isomer, unassigned) [Formula Ib]: the figures for the EC50 in the test on RSV A2, with HRV16 and in the test on RSV strain A2 were 630 nM, 654 nM and 2740 nM, respectively.

Regarding `CC(C)OC(=O)[C@H](C)NP(=O)(OC[C@@]1(C#N)O[C@@H](c2ccc3c(N)ncnn23)[C@H](O)[C@@H]1O)Oc1ccccc1` (stereo partly drawn) [Compound 3, isopropyl ((((2R,3S,4R,5S)-5-(4-aminopyrrolo[2,1-f][1,2,4]triazin-7-yl)-2-cyano-3,4-dihydroxytetrahydrofuran-2-yl)methoxy)(phenoxy)phosphoryl)-L-alaninate], the EC50 (as a rule, the concentration giving half of the maximal effect) in the test with RSV A2 came to 1150 nM; in the test on HRV16, 1420 nM; in the test on HRV14 it was 1810 nM; in the test with RSV strain A2, 463 nM; in the test on HRV1a it was 735 nM.

For the compound `CC(C)OC(=O)[C@H](C)N[P@](=O)(OC[C@@]1(C#N)O[C@@H](c2ccc3c(N)ncnn23)[C@H](O)[C@@H]1O)Oc1ccccc1` [Compound 4, (S)-isopropyl 2-(((S)-(((2R,3S,4R,5S)-5-(4-aminopyrrolo[2,1-f][1,2,4]triazin-7-yl)-2-cyano-3,4-dihydroxytetrahydrofuran-2-yl)methoxy)(phenoxy)phosphoryl)amino)propanoate], the values for the EC50 in the test with RSV A2, with HRV16 and in the test with RSV strain A2 were 879 nM, 965 nM and 342 nM, respectively.

Consider `CCC(CC)OC(=O)[C@H](C)NP(=O)(OC[C@@]1(C#N)O[C@@H](c2ccc3c(N)ncnn23)[C@H](O)[C@@H]1O)Oc1ccccc1` (stereo partly drawn) [Compound 5, (2S)-pentan-3-yl 2-(((((2R,3S,4R,5S)-5-(4-aminopyrrolo[2,1-f][1,2,4]triazin-7-yl)-2-cyano-3,4-dihydroxytetrahydrofuran-2-yl)methoxy)(phenoxy)phosphoryl)amino)propanoate], for which the EC50 with RSV A2 came out at 1240 nM; in the test with HRV16, 3130 nM; with HRV14, 3430 nM; with RSV strain A2, 1740 nM; in the test on HRV1a it was 1620 nM.

Take `C[C@H](NP(=O)(OC[C@@]1(C#N)O[C@@H](c2ccc3c(N)ncnn23)[C@H](O)[C@@H]1O)Oc1ccccc1)C(=O)OC1CCCCC1` (stereo partly drawn) [Formula Ia, (2S)-cyclohexyl 2-(((((2R,3S,4R,5S)-5-(4-aminopyrrolo[2,1-f][1,2,4]triazin-7-yl)-2-cyano-3,4-dihydroxytetrahydrofuran-2-yl)methoxy)(phenoxy)phosphoryl)amino)propanoate]: the values for the EC50 in the test with RSV A2, in the test with HRV16 and in the test with RSV strain A2 were 76 nM, 510 nM and 96 nM, respectively.
